Structures can show the parent of a compound that is named as a salt. Where only a bound is given, the exact number is not on record here.

Consider `NCC1Cc2cccc(-c3cc(C(F)(F)F)cc(C(F)(F)F)c3)c2O1` (racemic) (as salt: hydrochloride) [Example 32, (±)-1-{7-[3,5-bis(trifluoromethyl)phenyl]-2,3-dihydro-1-benzofuran-2-yl}methanamine], for which the melting point was 174 to 175 °C (dec.).

As for `NCC1Cc2cccc(-c3ccc(F)c(Cl)c3)c2O1` (racemic) (as salt: hydrochloride) [Example 34, (±)-1-[7-(3-chloro-4-fluorophenyl)-2,3-dihydro-1-benzofuran-2-yl]methanamine], the melting point is over 210 °C.

`NCC1Cc2cccc(-c3ccc(Cl)cc3Cl)c2O1` (single isomer, unassigned; (-)) (as salt: hydrochloride) [Example 149, (−)-1-[7-(2,4-dichlorophenyl)-2,3-dihydro-1-benzofuran-2-yl]methanamine]: the melting point lay in the range of 203 to 206 °C.

Take `Cc1ccccc1-c1cc(F)c(F)c2c1OC(CN)C2` (racemic) (as salt: hydrochloride) [Example 110, (±)-1-[4,5-difluoro-7-(2-methylphenyl)-2,3-dihydro-1-benzofuran-2-yl]methanamine]: the melting point was over 224 °C.

On to `Cc1cccc(-c2cccc3c2OC(CN)C3)c1` (racemic) (as salt: hydrochloride) [Example 41, (±)-1-[7-(3-methylphenyl)-2,3-dihydro-1-benzofuran-2-yl]methanamine], for which the melting point is > 210 °C (dec.).

On to `CNCC1Cc2cccc(-c3c(Cl)cccc3Cl)c2O1` (single isomer, unassigned; (-)) (as salt: hydrochloride) [Example 434, (−)-{[7-(2,6-dichlorophenyl)-2,3-dihydro-1-benzofuran-2-yl]methyl}methylamine], for which the melting point was 195 to 197 °C.

In turn, `Cc1ccccc1-c1cc(Cl)cc2c1OC(CN)C2` (single isomer, unassigned; (+)) (as salt: hydrobromid) [Example 96, (+)-1-[5-chloro-7-(2-methylphenyl)-2,3-dihydro-1-benzofuran-2-yl]methanamine] gave a melting point of 170 to 172 °C.

`NCC1Cc2cccc(-c3ccc(Cl)cc3)c2O1` (racemic) (as salt: hydrochloride) [Example 76, (±)-1-[7-(4-chlorophenyl)-2,3-dihydro-1-benzofuran-2-yl]methanamine] yielded a melting point of 212 to 214 °C.

Compound `NCC1Cc2cccc(-c3cccc(Cl)c3)c2O1` (single isomer, unassigned; (+)) (as salt: hydrobromid) [Example 66, (+)-1-[7-(3-chlorophenyl)-2,3-dihydro-1-benzofuran-2-yl]methanamine] yielded a melting point of 187 to 189 °C.

Compound `NCC1Cc2cccc(-c3ccc(F)cc3)c2O1` (single isomer, unassigned; (-)) (as salt: hydrobromid) [Example 75, (−)-1-[7-(4-fluorophenyl)-2,3-dihydro-1-benzofuran-2-yl]methanamine] registered a melting point of 208 to 210 °C.

In the case of `NCC1Cc2cc(F)cc(-c3ccccc3C(F)(F)F)c2O1` (single isomer, unassigned; (+)) (as salt: hydrochloride) [Example 152, (+)-1-{5-fluoro-7-[2-(trifluoromethyl)phenyl]-2,3-dihydro-1-benzofuran-2-yl}methanamine], the melting point lay in the range of 193 to 197 °C.

`Cc1ccccc1-c1cc(C#N)cc2c1OC(CN)C2` (racemic) (as salt: hydrochloride) [Example 311, (±)-2-(aminomethyl)-7-(2-methylphenyl)-2,3-dihydro-1-benzofuran-5-carbonitrile] came in with a melting point of 127 to 129 °C.

The compound `Cc1ccc(-c2cccc3c2CC(CN)O3)cc1` (racemic) (as salt: hydrochloride) [Example 121, (±)-1-[4-(4-methylphenyl)-2,3-dihydro-1-benzofuran-2-yl]methanamine] displayed a melting point of 239 to 241 °C.

As a reminder, the melting point is the temperature, or range, at which the solid turns liquid.

Values taken from patent US7435837B2, “Dihydrobenzofuranyl alkanamine derivatives and methods for using same” (Wyeth, priority 2003, dated 2008).
